From patent US20120088827A1 (Profectus Biosciences, Inc., priority 2009, published 2012)
Where two headings read alike, the source gives them in different places.

Assays:
[1] = tested on: NF-κB driven transcription (pNF-κB-luc reporter, 293 cells); assay: 293/NF-kB-luc reporter cell assay; type: cell-based; details: Homo sapiens; compound 2 hours, then 20 ng/ml TNF-α for 18 hours; luminescence
Experimental: (§1) Two reporter cell assays were used to determine the ability of the compounds of Examples 1-12 to inhibit NF-κB driven transcription. The first assay was a 293-cell based assay with a stably integrated pNF-κB-luc reporter plasmid containing 3 NF-κB promoter elements. The second assay was a 293-cell based assay with a stably integrated pTRH1-NF-κB-dscGFP reporter containing 4 NF-κB promoter elements. Cells were treated with 0, 0.2, 1, 10, 20 and 40 μM of the compounds of Example 1-12 for 2 hours then were induced with 20 ng/ml TNF-α for 18 hours. Following the induction, luminescence or fluorescence was quantified using a Beckman-Coulter 2300 plate reader. […] As a control, 0.5% DMSO treated and untreated cells were compared to verify that the compounds of Examples 1-12 had no effect on the expression of luciferase or in the readout of the assay. There was a slight decrease in the output from the assay in the DMSO treated population although it was not statistically significant. As a result of the controls, the decrease in activity in the drug treated samples was compared to the DMSO control sample.

[2] = tested on: NF-κB driven transcription (pTRH1-NF-κB-dscGFP reporter, 293 cells); assay: NF-kB/293/GFP reporter cell assay; type: cell-based; details: Homo sapiens, HEK293; compound 2 hours, then 20 ng/ml TNF-α for 18 hours; fluorescence
Experimental: as §1

IL-6 = assay: Inhibition of IL-6 release in LPS-stimulated RAW 264.7 cells; type: cell-based; details: Mus musculus, RAW264.7; pretreated 2 hours, 1 μg/mL LPS 20-24 hours
Experimental: RAW 264.7 cells were seeded at 4×10^4 cells per well in complete growth medium in 96 well white TC plates with clear bottoms one day prior to the assay. The next day the cells were washed once and 100 μL fresh growth media was added. Cells were pretreated with 0.5 μL from a 6 point 200× dilution series of the test compounds in DMSO for 2 hours. Following pretreatment with the drugs, the inflammatory response was induced by adding 5 μL of a 20 μg/mL solution of LPS (Sigma). The cells were incubated in the presence of the drugs and 1 μg/mL LPS for another 20-24 hours. Typically after treatment the total DMSO was […] of the culture volume and the final concentrations of the compounds were approximately: 40, 20, 10, 1, 0.2 and 0 μM depending on the MW of each compound. Modified dilution series were prepared as needed to get adequate dose response curves without changing the % DMSO. Samples were run in duplicate or triplicate and included DMSO treated control wells with and without LPS stimulation. Drugs with a known activity such as Parthenolide or DHMEQ were run as experimental controls. After 20-24 hours LPS activation, the media supernatant was collected from the cells and replaced with fresh media. The supernatant samples were cleared by centrifugation at 1,000×g for 5 minutes, transferred to fresh storage plates, and stored frozen at −30° C.
After determining the appropriate supernatant dilutions experimentally, mIL-6 levels in the supernatants were quantified using Quantikine™ mouse IL-6 Immunoassay (R&D Systems) according to the manufacturer's protocol. Approximately 50 μL of the supernatants diluted in Calibrator Diluent were added to 50 μL of Assay Diluent in microplate wells pre-coated with an anti-mouse IL-6 capture antibody. Controls included a calibrated positive IL-6 control sample, non-specific binding (NSB) wells containing Calibrator Diluent but no IL-6, and a recombinant mouse IL-6 standard dilution series (10-1000 pg/mL). The plates were incubated at room temperature for 2 hours with shaking and then washed 5 times with 400 μL 1× Wash Buffer. Approximately 100 μL of an HRP-conjugated anti-mouse IL-6 antibody was added to each well to detect IL-6 captured on the plate. The plates were incubated at room temperature for 2 hours and then washed 5 times with 400 μl 1× Wash Buffer. Equal volumes of Color Reagents A and B were mixed and 100 μL of this HRP Substrate Solution was added to each well on the plate. The blue color was allowed to develop for 30 minutes and then the reaction was stopped using 100 μL of Stop Solution yielding a yellow color. Absorbance at 450 nm with a reference wavelength subtracted at 595 nm was recorded using a Becton-Dickinson DTX 880 Multimode Detector.
The concentration of mIL-6 in the unknown samples was determined from a curve-fit of the mIL-6 standard absorbance data and multiplying by the dilution factor. The maximum activity achieved in the absence of the inhibitor (DMSO+LPS treated wells) was arbitrarily given a value of 100%; likewise the minimum activity in the absence of the stimulant (no LPS) was assigned a value of 0% Inhibition of the amount of mIL-6 cytokine released in the drug treated wells was calculated relative to the maximum activation in the DMSO+LPS treated control wells (i.e., % inhibition=100−(drug+LPS treated)/(DMSO+LPS treated)). Dose response curves were used to determine the effective concentration to inhibit 50% of the mIL-6 cytokine released (IC50) by means of a SigmaPlot macro which fits a sigmoidal dose-response curve to the (log 10) μM concentration versus % inhibition. […] This technique yields an objective value for the IC50 provided that 50% inhibition was approached at the concentrations tested.

NF-κB p65 = target: T1, NF-κB p65 (Homo sapiens, UniProt Q04206); assay: TransAM NF-κB Family DNA Binding ELISA, p65
T1 construct: purchased Active Motif
T1 sequence (Q04206 whole entry): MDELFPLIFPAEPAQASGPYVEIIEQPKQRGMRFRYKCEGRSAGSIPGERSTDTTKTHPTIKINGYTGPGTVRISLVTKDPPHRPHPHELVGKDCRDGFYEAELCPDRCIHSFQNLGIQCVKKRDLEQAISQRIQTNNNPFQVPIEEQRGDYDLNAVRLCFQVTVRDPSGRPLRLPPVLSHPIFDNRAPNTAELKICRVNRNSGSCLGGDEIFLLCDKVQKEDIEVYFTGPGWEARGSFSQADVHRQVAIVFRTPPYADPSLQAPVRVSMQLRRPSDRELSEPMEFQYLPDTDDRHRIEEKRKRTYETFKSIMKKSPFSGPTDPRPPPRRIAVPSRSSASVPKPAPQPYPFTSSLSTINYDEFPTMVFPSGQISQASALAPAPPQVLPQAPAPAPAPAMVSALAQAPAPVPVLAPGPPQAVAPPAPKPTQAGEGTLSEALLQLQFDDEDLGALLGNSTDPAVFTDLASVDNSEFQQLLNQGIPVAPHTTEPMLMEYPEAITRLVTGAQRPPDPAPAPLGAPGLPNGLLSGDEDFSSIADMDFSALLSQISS
Experimental: The binding activity of NF-κB heterodimer or homodimer subunits from activated nuclear extracts or purified recombinant NF-κB proteins exposed to the drug compounds was evaluated using the TransAM NF-κB Family binding ELISA (Active Motif). Approximately 3-5 μg of nuclear extracts from TNFα activated Hela or Raji cells (Active Motif) or 20 ng of purified recombinant proteins (p65 and p50 from Active Motif, p52 from Santa Cruz) were incubated for 1 hour at room temperature with 20 μL drug compounds diluted in Complete Lysis buffer without DTT. Treated samples were then transferred to 30 μL Complete Binding Buffer (with DTT) in microplate wells pre-coated with the NF-κB consensus oligonucleotide. […] The plate was incubated for 1 hour at room temperature with gentle shaking and then washed 3 times with 200 μL 1× Wash Buffer. NF-κB p65, p50, p52, RelB, or c-Rel subunits bound to the plate were detected with 100 μL of the primary antibody (diluted 1:1000 in 1× Antibody Buffer) specific for that subunit. The plate was incubated for 1 hour at room temperature and then washed 3 times with 200 μL 1× Wash Buffer. Next, 100 μL of a HRP conjugated goat anti-rabbit antibody (diluted 1:1,000 in 1× Antibody Buffer) was added to each well. The plate was incubated for 1 hour at room temperature and then washed 4 times with 200 μL 1× Wash Buffer. 100 μL of room temperature Developing Solution was added to each well. The reaction was allowed to develop for 2-10 minutes until a medium dark blue color developed (depending on the subunit activity in the lot of extract or lot of recombinant protein used) and then the reaction was stopped with 100 μL Stop Solution yielding a yellow color. Absorbance was recorded using a Becton-Dickinson DTX 880 Multimode Detector at 450 nm with a reference wavelength subtracted at 620 nm.

[3] = binding to NF-κB consensus oligonucleotide, read-out: p65 binding IC50

Row | IC50 (NF-κB p65; [3]) | Compound | EC50 [1] | EC50 [2] | EC50 (IL-6) | IC50 (NF-κB p65)
1 | 7.3 µM | O=C(Nc1ccccc1)OC1C(NC(=O)c2ccccc2O)=CC(=O)C2OC21 (racemic) [Example 11, (±)-3-(2-hydroxybenzamido)-5-oxo-7-oxabicyclo[4.1.0]hept-3-en-2-yl phenylcarbamate] | 3.3 µM | 4.3 µM | 0.87 µM | –
2 | 116 µM | CC(C)(C)CC(=O)Oc1ccccc1C(=O)NC1=CC(=O)C2OC2C1OC(=O)CC(C)(C)C (racemic) [Example 9, (±)-2-(2-(3,3-dimethylbutanoyloxy)-5-oxo-7-oxabicyclo[4.1.0]hept-3-en-3-ylcarbamoyl)phenyl 3,3-dimethylbutanoate] | 15 µM | 16 µM | 1.4 µM | –
3 | – | CCOP(=O)(OCC)Oc1ccccc1C(=O)NC1=CC(=O)C2OC2C1O (racemic) [Example 10, (±)-diethyl 2-(2-hydroxy-5-oxo-7-oxabicyclo[4.1.0]hept-3-en-3-ylcarbamoyl)phenyl phosphate] | 24 µM | 13 µM | 6 µM | 59 µM

Row | Compound | IC50 (NF-κB p65; [3]) | EC50 [1] | EC50 [2] | EC50 (IL-6) | IC50 (NF-κB p65)
4 | O=C(NC1=CC(=O)C2OC2C1O)c1ccccc1OP(=O)(OCc1ccccc1)OCc1ccccc1 (racemic) [Example 12, (±)-dibenzyl 2-(2-hydroxy-5-oxo-7-oxabicyclo[4.1.0]hept-3-en-3-ylcarbamoyl)phenyl phosphate] | > 320 µM | > 26 µM | > 26 µM | > 26 µM | –
